The text below walks through data of patent US10336792B2, “Antimicrobial peptide dendrimers” (priority 2014, dated 2019).

Common to all, as to assay type: cell-based
For assay [1], the system named is Pseudomonas aeruginosa (strain PA01). Briefly: microbe, parasite or virus in culture. The following applies: strain. The method, boiled down: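 Broth microdilution MIC against P. aeruginosa PAO1 in LB: peptides serially diluted by ⅔, bacteria added at OD600 0.001 and incubated 18–24 h at 37 °C. MTT added; MIC is the lowest concentration preventing visible growth.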

For assay [2], the system named is Bacillus subtilis (strain BR151). How it is done:
(§1) Antimicrobial activity was assayed against Bacillus subtilis (strain BR151), Escherichia coli (strain DH5α) and Pseudomonas aeruginosa (strain PA01). Microdilution broth method was used to determine the minimal inhibitory concentration (MIC). A colony of bacteria was grown in LB-medium overnight at 37° C. The concentration was quantified by measuring absorbance at 600 nm and diluted to OD600=0.1 (1×10^8 CFU/mL). The samples were prepared as stock solutions of 1 mg mL^−1 in H2O and diluted serially by ⅔ in nutrient LB in a 96-well microtiterplate (Cornstar, polypropylene, untreated). The sample solutions (50 μL) were mixed with the diluted bacterial suspension with an OD600 nm of 0.001 (50 μL). […] The plates were incubated at 37° C. until satisfactory growth (18-24 h). For each test, two columns of the plate were kept for sterility control (SC, broth only) and growth control (GC, broth with bacterial inoculums, no antibiotics). 10 μL of a solution of MTT (0.1% in H2O) was added to each well. The minimal inhibitory concentration (MIC) was defined as the lowest concentration of the antimicrobial substance (peptide dendrimer) that inhibited visible growth of the tested bacteria (yellow) with the unaided eye. For microbiological study the linear peptide LysTyrLysLysAlaLeuLysLysLeuAlaLysLeuLeu (SEQ ID No. 1) was used as reference.
(§2) The AMPD library was tested for their antimicrobial activity against B. subtilis BR151, a Gram-positive bacterium and E. coli DH5α, another Gram-negative bacterium, to cover a broader spectrum of different bacteria. […] Therefore no explicit SAR can be established, but clearly the hydrophobic amino acids Ala and Tyr seem to have a significant influence in reducing activity.

In assay [3] the test system is Escherichia coli (strain DH5α). How it is done:
as §1, §2

Converted amounts (≈) assume the structure as drawn. Read-outs that look alike come from different tables or passages of the source. Positions of bridges follow the written chain, without caps; N, C: chain ends. Non-standard residues stand in square brackets, D forms with d. Residues, ends and D or L forms follow the SMILES beside them. Groups on a side chain read outwards from the residue. Chains are numbered I, II in the order given. *: point of attachment. LeuLys(Leu) = CC(C)C[C@H](N)C(=O)NCCCC[C@H](NC(=O)[C@@H](N)CC(C)C)C(=O)*; X1 = CCCCCCCCCCCCCCCCCCCCCCCC(=O)*; Dap = NC[C@H](N)C(=O)O

Turning to `CC(C)C[C@H](NC(=O)[C@H](CCCCN)NC(=O)[C@H](CCCCNC(=O)[C@H](CC(C)C)NC(=O)[C@@H](N)CCCCN)NC(=O)[C@H](CC(C)C)NC(=O)[C@@H](N)CCCCN)C(=O)NCCCC[C@H](NC(=O)[C@H](CC(C)C)NC(=O)[C@H](CCCCN)NC(=O)[C@H](CCCCNC(=O)[C@H](CC(C)C)NC(=O)[C@@H](N)CCCCN)NC(=O)[C@H](CC(C)C)NC(=O)[C@@H](N)CCCCN)C(=O)N[C@@H](CCCCN)C(=O)N[C@@H](CC(C)C)C(=O)N[C@@H](CSSC[C@H](NC(=O)[C@H](CC(C)C)NC(=O)[C@H](CCCCN)NC(=O)[C@H](CCCCNC(=O)[C@H](CC(C)C)NC(=O)[C@H](CCCCN)NC(=O)[C@H](CCCCNC(=O)[C@H](CC(C)C)NC(=O)[C@@H](N)CCCCN)NC(=O)[C@H](CC(C)C)NC(=O)[C@@H](N)CCCCN)NC(=O)[C@H](CC(C)C)NC(=O)[C@H](CCCCN)NC(=O)[C@H](CCCCNC(=O)[C@H](CC(C)C)NC(=O)[C@@H](N)CCCCN)NC(=O)[C@H](CC(C)C)NC(=O)[C@@H](N)CCCCN)C(N)=O)C(N)=O` [CCS-3 dimer, ((KL)4(KKL)2KKLC)2] (I: H-KLK([Leu-Lys])KLKKLC-NH2 / II: H-KLK([Leu-Lys])KLKKLC-NH2 / III: H-KLK([Leu-Lys])KL / IV: H-KLK([Leu-Lys])KL; amide I:6-III:C, II:6-IV:C; disulfide I:9-II:9; N-terminus assumed), the “MIC P. aeruginosa PAO1” value in assay [1] is 3 µg/mL (≈ 0.684 µM). For the same molecule, in assay [2] (strain BR151), the “MIC B. subtilis BR151” value came out at 4 µg/mL (≈ 0.912 µM). The “MIC E. coli DH5α” value in assay [3] (DH5α) worked out at 4 µg/mL (≈ 0.912 µM).

Take `CC(C)C[C@H](NC(=O)[C@H](CCCNC(=N)N)NC(=O)[C@H](CCCCNC(=O)[C@H](CC(C)C)NC(=O)[C@@H](N)CCCNC(=N)N)NC(=O)[C@H](CC(C)C)NC(=O)[C@@H](N)CCCNC(=N)N)C(=O)NCCCC[C@H](NC(=O)[C@H](CC(C)C)NC(=O)[C@H](CCCNC(=N)N)NC(=O)[C@H](CCCCNC(=O)[C@H](CC(C)C)NC(=O)[C@@H](N)CCCNC(=N)N)NC(=O)[C@H](CC(C)C)NC(=O)[C@@H](N)CCCNC(=N)N)C(=O)N[C@@H](CCCNC(=N)N)C(=O)N[C@@H](CC(C)C)C(=O)N[C@@H](CSSC[C@H](NC(=O)[C@H](CC(C)C)NC(=O)[C@H](CCCNC(=N)N)NC(=O)[C@H](CCCCNC(=O)[C@H](CC(C)C)NC(=O)[C@H](CCCNC(=N)N)NC(=O)[C@H](CCCCNC(=O)[C@H](CC(C)C)NC(=O)[C@@H](N)CCCNC(=N)N)NC(=O)[C@H](CC(C)C)NC(=O)[C@@H](N)CCCNC(=N)N)NC(=O)[C@H](CC(C)C)NC(=O)[C@H](CCCNC(=N)N)NC(=O)[C@H](CCCCNC(=O)[C@H](CC(C)C)NC(=O)[C@@H](N)CCCNC(=N)N)NC(=O)[C@H](CC(C)C)NC(=O)[C@@H](N)CCCNC(=N)N)C(N)=O)C(N)=O` [CCS-18 dimer, ((RL)4(KRL)2KRLC)2] (I: H-RLK([Leu-Arg])RLKRLC-NH2 / II: H-RLK([Leu-Arg])RLKRLC-NH2 / III: H-RLK([Leu-Arg])RL / IV: H-RLK([Leu-Arg])RL; amide I:6-III:C, II:6-IV:C; disulfide I:9-II:9; N-terminus assumed): the “MIC P. aeruginosa PAO1” value in assay [1] turned out to be 9 µg/mL (≈ 1.88 µM). Besides, the “MIC B. subtilis BR151” value in assay [2] (strain BR151) came to 9 µg/mL (≈ 1.88 µM). For the same molecule, the “MIC E. coli DH5α” value in assay [3] (DH5α) was 13 µg/mL (≈ 2.72 µM).

For the molecule `CC(C)C[C@H](NC(=O)[C@H](CCCCN)NC(=O)[C@H](CCCCNC(=O)[C@H](CC(C)C)NC(=O)[C@H](CCCCN)NC(=O)[C@H](CCCCNC(=O)[C@H](CC(C)C)NC(=O)[C@H](CCCCN)NC(=O)CSC[C@H](NC(=O)[C@H](CC(C)C)NC(=O)[C@H](CCCCN)NC(=O)[C@H](CCCCNC(=O)[C@H](CC(C)C)NC(=O)[C@@H](N)CCCCN)NC(=O)[C@H](CC(C)C)NC(=O)[C@@H](N)CCCCN)C(N)=O)NC(=O)[C@H](CC(C)C)NC(=O)[C@H](CCCCN)NC(=O)CSC[C@H](NC(=O)[C@H](CC(C)C)NC(=O)[C@H](CCCCN)NC(=O)[C@H](CCCCNC(=O)[C@H](CC(C)C)NC(=O)[C@@H](N)CCCCN)NC(=O)[C@H](CC(C)C)NC(=O)[C@@H](N)CCCCN)C(N)=O)NC(=O)[C@H](CC(C)C)NC(=O)[C@H](CCCCN)NC(=O)[C@H](CCCCNC(=O)[C@H](CC(C)C)NC(=O)[C@H](CCCCN)NC(=O)CSC[C@H](NC(=O)[C@H](CC(C)C)NC(=O)[C@H](CCCCN)NC(=O)[C@H](CCCCNC(=O)[C@H](CC(C)C)NC(=O)[C@@H](N)CCCCN)NC(=O)[C@H](CC(C)C)NC(=O)[C@@H](N)CCCCN)C(N)=O)NC(=O)[C@H](CC(C)C)NC(=O)[C@H](CCCCN)NC(=O)CSC[C@H](NC(=O)[C@H](CC(C)C)NC(=O)[C@H](CCCCN)NC(=O)[C@H](CCCCNC(=O)[C@H](CC(C)C)NC(=O)[C@@H](N)CCCCN)NC(=O)[C@H](CC(C)C)NC(=O)[C@@H](N)CCCCN)C(N)=O)C(N)=O` [CCS-20, (KL)8(KKLCxKL)4(KKL)2KKL], in assay [1], the “MIC P. aeruginosa PAO1” value was 3 µg/mL (≈ 0.489 µM). The “MIC B. subtilis BR151” value in assay [2] (strain BR151) turned out to be 10 µg/mL (≈ 1.63 µM). In assay [3] (DH5α), the “MIC E. coli DH5α” value was 4 µg/mL (≈ 0.651 µM).

As for `CC(C)C[C@H](NC(=O)[C@H](CCCCN)NC(=O)[C@H](CNC(=O)[C@H](CC(C)C)NC(=O)[C@H](CCCCN)NC(=O)[C@H](CNC(=O)[C@H](CC(C)C)NC(=O)[C@H](CCCCN)NC(=O)[C@H](CNC(=O)[C@H](CC(C)C)NC(=O)[C@@H](N)CCCCN)NC(=O)[C@H](CC(C)C)NC(=O)[C@@H](N)CCCCN)NC(=O)[C@H](CC(C)C)NC(=O)[C@H](CCCCN)NC(=O)[C@H](CNC(=O)[C@H](CC(C)C)NC(=O)[C@@H](N)CCCCN)NC(=O)[C@H](CC(C)C)NC(=O)[C@@H](N)CCCCN)NC(=O)[C@H](CC(C)C)NC(=O)[C@H](CCCCN)NC(=O)[C@H](CNC(=O)[C@H](CC(C)C)NC(=O)[C@H](CCCCN)NC(=O)[C@H](CNC(=O)[C@H](CC(C)C)NC(=O)[C@@H](N)CCCCN)NC(=O)[C@H](CC(C)C)NC(=O)[C@@H](N)CCCCN)NC(=O)[C@H](CC(C)C)NC(=O)[C@H](CCCCN)NC(=O)[C@H](CNC(=O)[C@H](CC(C)C)NC(=O)[C@@H](N)CCCCN)NC(=O)[C@H](CC(C)C)NC(=O)[C@@H](N)CCCCN)C(N)=O` [MSt-136, (KL)8(BKL)4(BKL)2(BKL)] (I: H-KL[Dap]([Leu-Lys])KL[Dap]KL[Dap]KL-NH2 / II: H-KL[Dap]([Leu-Lys])KL[Dap]KL / III: H-KL[Dap]([Leu-Lys])KL / IV: H-KL[Dap]([Leu-Lys])KL; amide I:6-IV:C, I:9-II:C, II:6-III:C), the “MIC P. aeruginosa PAO1” value in assay [1] is 2 µg/mL (≈ 0.472 µM). Also, the “MIC B. subtilis BR151” value in assay [2] (strain BR151) was determined as 2 µg/mL (≈ 0.472 µM). In addition, the “MIC E. coli DH5α” value in assay [3] (DH5α) was found to be 1 µg/mL (≈ 0.236 µM).

For `CC(C)C[C@H](NC(=O)[C@H](CCCCNC(=O)[C@@H](N)CC(C)C)NC(=O)[C@@H](N)CC(C)C)C(=O)NCCCC[C@H](NC(=O)[C@H](CC(C)C)NC(=O)[C@H](CCCCNC(=O)[C@@H](N)CC(C)C)NC(=O)[C@@H](N)CC(C)C)C(=O)N[C@@H](CCCCN)C(=O)NCCCC[C@H](NC(=O)[C@H](CCCCN)NC(=O)[C@H](CCCCNC(=O)[C@H](CC(C)C)NC(=O)[C@H](CCCCNC(=O)[C@@H](N)CC(C)C)NC(=O)[C@@H](N)CC(C)C)NC(=O)[C@H](CC(C)C)NC(=O)[C@H](CCCCNC(=O)[C@@H](N)CC(C)C)NC(=O)[C@@H](N)CC(C)C)C(=O)N[C@@H](CCCCN)C(N)=O` [MSt-149, (L)8(KL)4(KK)2(KK)NH2] (I: H-LK(Leu)LK([Leu-LeuLys(Leu)])KKK-NH2 / II: H-LK(Leu)LK([Leu-LeuLys(Leu)])K; amide I:6-II:C; N-terminus assumed), in assay [2] (strain BR151), the “MIC B. subtilis BR151” value stood at 8 µg/mL (≈ 3.01 µM). Moreover, the “MIC E. coli DH5α” value in assay [3] (DH5α) is over 90 µg/mL.

As to `CCCCCCCCCCCCCCCCCCCCCCCC(=O)NCCCC[C@H](NC(=O)[C@H](CC(C)C)NC(=O)[C@H](CCCCN)NC(=O)[C@H](CCCCNC(=O)[C@H](CC(C)C)NC(=O)[C@H](CCCCN)NC(=O)[C@H](CCCCNC(=O)[C@H](CC(C)C)NC(=O)[C@@H](N)CCCCN)NC(=O)[C@H](CC(C)C)NC(=O)[C@@H](N)CCCCN)NC(=O)[C@H](CC(C)C)NC(=O)[C@H](CCCCN)NC(=O)[C@H](CCCCNC(=O)[C@H](CC(C)C)NC(=O)[C@@H](N)CCCCN)NC(=O)[C@H](CC(C)C)NC(=O)[C@@H](N)CCCCN)C(N)=O` [MSt-287, (KL)4(KKL)2(KKLKC24)] (I: H-KLK([Leu-Lys])KLKKLK(X1)-NH2 / II: H-KLK([Leu-Lys])KL; amide I:6-II:C), in assay [2] (strain BR151), the “MIC B. subtilis BR151” value was 26 µg/mL (≈ 10.1 µM). For the same molecule, the “MIC E. coli DH5α” value in assay [3] (DH5α) was 13 µg/mL (≈ 5.06 µM).

With “(KL)32(KKL)16(KKLCxKL)8(KKL)4(KKL)2KKL [CCS-15]”, in assay [2] (LB medium), the “MIC B. subtilis BR151” value is 26 µg/mL. Further, the “MIC E. coli DH5α” value in assay [3] (LB medium) came out at 8 µg/mL.
